Data taken from patent US20230295199A1, “PHOSPHOLIPID” (NIPPON FINE CHEMICAL CO., LTD., priority 2021, published 2023).

Tests used:
[1] = Particle size and polydispersity index of lipid particles (Zetasizer Nano ZS); type: physicochemical; conditions: siRNA lipid particles, lipid 1:DPPC:Chol 45:10:45, named phospholipid as lipid 1; diluted 50-fold with RNase-free water
Method: (§1) siRNA was added to 1 mM citrate buffer (pH 4.0), thereby preparing an acidic aqueous solution of siRNA (25° C., siRNA concentration: 71.4 nM). Separately, lipids (lipid 1: DOP-DEDA, DOP-PPZ, or DOR-MPPZ; lipid 2: dipalmitoyl phosphatidylcholine (DPPC); and lipid 3: cholesterol (Chol)) at a molar ratio of 45:10:45 (lipid 1:lipid 2:lipid 3) were added to ethanol, thereby preparing a phospholipid alcohol solution (25° C., lipid concentration: 2.5 mM). A 5-fold volume of the acidic aqueous solution of siRNA was added to the phospholipid alcohol solution (siRNA/lipid molar ratio=1/7000), and a microchannel (KeyChem-Basic, YMC Co., Ltd.) was used to obtain lipid particles. Finally, ethanol was removed by dialysis.
The lipid particles were diluted 50-fold with RNase-free water, and then the particle size and polydispersity index (PDI) were measured with a Zetasizer Nano ZS (Malvern). The lipid. particles were also diluted 50-fold with a buffer (pH=4.0, 5.0, 6.0, or 7.0), and the ζ-potential was then measured.

[2] = siRNA encapsulation efficiency of lipid particles (RiboGreen reagent); type: physicochemical; conditions: lipid 1:DPPC:Chol 45:10:45, siRNA/lipid molar ratio 1/7000, named phospholipid as lipid 1
Method: as §1
Further, the encapsulation efficiency of RNA was measured in the following manner. The measurement was performed using an RNA assay reagent (RiboGreen reagent, Thermo Fisher Scientific), specifically as described below. […] The plate was shaken for 5 minutes, and the fluorescence intensity in each well was measured. The encapsulation efficiency of siRNA in the lipid particles was calculated using the following equation: the encapsulation efficiency (%)=(the fluorescence intensity of total siRNA−the fluorescence intensity of free siRNA)/(the fluorescence intensity of total siRNA), with the measured fluorescence intensity.

| Molecule | Particle size (nm) [1] [nm] | Pdl [1] | siRNA encapsulation efficiency (%)* [2] [%] |
| --- | --- | --- | --- |
| CCCCCCCC/C=C\CCCCCCCC(=O)OC[C@H](COP(=O)(O)OCCN1CCNCC1)OC(=O)CCCCCCC/C=C\CCCCCCCC [DOP-PPZ, 1,2-di-(9Z-octadecenoyl)-sn-glycero-3-phosphoethylpiperazine] | 79 ± 3 | 0.35 ± 0.01 | 94 ± 4 |
| Dioleoylphosphate-Diethylenediamine Conjugate [DOP-DEDA, reference compound] | 100 ± 3 | 0.11 ± 0.06 | 98 ± 7 |
